In patent US20210253557A1, “SUBSTITUTED TRIAZOLE DERIVATIVES AND USES THEREOF” (Bayer Pharma Aktiengesellschaft, priority 2017, published 2021):
Structures can show the parent of a compound that is named as a salt.

Columns and labels:
human V1a receptor = molecular target: T1, human V1a receptor (Homo sapiens, UniProt P37288); assay: Cellular in vitro assay for determining vasopressin receptor activity (V1a, aequorin luminescence); assay type: cell-based; details: for IC50: CHO cell line transfected with the human V1a receptor, [Arg8]-vasopressin at EC50 concentration, read-out: IC50 hV1a; for ratio IC50 hV2/hV1a: selectivity ratio of IC50 hV2 to IC50 hV1a
T1 construct: expressed in transfected cells; host or cells: CHO K1 (ATCC), also stably transfected with a modified aequorin
Protocol: (§1) B-1. Cellular In Vitro Assay for Determining Vasopressin Receptor Activity
(§2) The identification of agonists and antagonists of the V1a and V2 vasopressin receptors from humans, rats and dogs as well as the quantification of the activity of the compounds of the invention is carried out using recombinant cell lines. These cell lines originally derive from a hamster's ovary epithelial cell (Chinese Hamster Ovary, CHO K1, ATCC: American Type Culture Collection, Manassas, Va. 20108, USA). The test cell lines constitutively express the human, rat or dog V1a or V2 receptors. In case of the Gαq-coupled V1a receptors, cells are also stably transfected with a modified form of the calcium-sensitive photoproteins aequorin (human and rat V1a) or obelin (dog V1a), which, after reconstitution with the cofactor coelenterazine, emit light when there are increases in free calcium concentrations [Rizzuto R, Simpson A W, Brini M, Pozzan T, Nature 358, 325-327 (1992); Illarionov B A, Bondar V S, Illarionova V A, Vysotski E S, Gene 153 (2), 273-274 (1995)]. The resulting vasopressin receptor cells react to stimulation of the recombinantly expressed V1a receptors by intracellular release of calcium ions, which can be quantified by the resulting photoprotein luminescence. The Gs-coupled V2 receptors are stably transfected into cell lines expressing the gene for firefly luciferase under control of a CRE-responsible promoter. Activation of V2 receptors induces the activation of the CRE-responsive promoter via cAMP increase, thereby inducing the expression of firefly luciferase. The light emitted by photoproteins of V1a cell lines as well as the light emitted by firefly luciferase of V2 cell lines corresponds to the activation or inhibition of the respective vasopressin receptor. The bioluminescence of the cell lines is detected using a suitable luminometer [Milligan G, Marshall F, Rees S, Trends in Pharmacological Sciences 17, 235-237 (1996)].
Vasopressin V1a receptor cell lines:
On the day before the assay, the cells are plated out in culture medium (DMEM/F12, 2% FCS, 2 mM glutamine, 10 mM HEPES, 5 μg/ml coelenterazine) in 384-well microtiter plates and kept in a cell incubator (96% humidity, 5% v/v CO2, 37° C.). On the day of the assay, test compounds in various concentrations are placed for 10 minutes in the wells of the microtiter plate before the agonist [Arg^8]-vasopressin at EC50 concentration is added. The resulting light signal is measured immediately in a luminometer.
(§3) Table 1A below lists individual IC50 values for the compounds of the invention (including racemic mixtures as well as separated enantiomers) that were obtained from cell lines transfected with the human V1a or V2 receptor: […]

human V2 receptor = molecular target: T2, human V2 receptor (Homo sapiens, UniProt P30518); assay: Cellular in vitro assay for determining vasopressin receptor activity (V2, CRE-luciferase); assay type: cell-based; details: CHO cell line transfected with the human V2 receptor; [Arg8]-vasopressin at EC50 concentration; read-out: IC50 hV2
T2 construct: expressed in transfected cells; host or cells: CHO K1 (ATCC) expressing firefly luciferase under a CRE-responsive promoter
Protocol: as §1, §2
Vasopressin V2 receptor cell lines:
On the day before the assay, the cells are plated out in culture medium (DMEM/F12, 2% FCS, 2 mM glutamine, 10 mM HEPES) in 384-well microtiter plates and kept in a cell incubator (96% humidity, 5% v/v CO2, 37° C.). On the day of the assay, test compounds in various concentrations and the agonist [Arg^8]-vasopressin at EC50 concentration are added together to the wells, and plates are incubated for 3 hours in a cell incubator. Upon addition of the cell lysis reagent Triton™ and the substrate luciferin, luminescence of firefly luciferase is measured in a luminometer.
as §3

T2 sequence (P30518 whole entry): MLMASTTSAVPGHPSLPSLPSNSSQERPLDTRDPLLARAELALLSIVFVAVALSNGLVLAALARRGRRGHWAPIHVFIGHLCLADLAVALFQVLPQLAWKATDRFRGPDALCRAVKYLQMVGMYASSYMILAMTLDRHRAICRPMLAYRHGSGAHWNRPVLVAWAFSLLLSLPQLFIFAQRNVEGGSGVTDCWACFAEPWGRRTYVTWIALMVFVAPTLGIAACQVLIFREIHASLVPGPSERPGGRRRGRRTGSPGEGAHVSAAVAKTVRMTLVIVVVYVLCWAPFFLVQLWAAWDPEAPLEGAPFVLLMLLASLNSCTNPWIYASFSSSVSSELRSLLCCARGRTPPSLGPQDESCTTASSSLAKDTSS
T1 sequence (P37288 whole entry): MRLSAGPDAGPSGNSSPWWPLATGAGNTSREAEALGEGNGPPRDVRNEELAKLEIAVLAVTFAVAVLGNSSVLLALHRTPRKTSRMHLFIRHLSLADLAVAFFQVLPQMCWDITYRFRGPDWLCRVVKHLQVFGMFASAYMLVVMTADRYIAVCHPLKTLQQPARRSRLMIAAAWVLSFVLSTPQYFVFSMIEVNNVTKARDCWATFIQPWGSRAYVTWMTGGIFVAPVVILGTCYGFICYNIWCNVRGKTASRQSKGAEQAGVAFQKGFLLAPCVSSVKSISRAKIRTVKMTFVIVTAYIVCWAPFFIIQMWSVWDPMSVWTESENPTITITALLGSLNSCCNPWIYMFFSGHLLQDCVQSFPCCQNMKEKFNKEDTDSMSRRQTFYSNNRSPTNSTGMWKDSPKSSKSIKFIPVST

IC50 (human V1a receptor) [nM]	ratio IC50 hV2/hV1a (human V1a receptor)	IC50 (human V2 receptor) [nM]	SMILES
2.1	8.6	18	O=C(NC(CO)c1nc(Cn2nc(-c3ccc(Cl)cc3)n(C[C@H](O)C(F)(F)F)c2=O)nn1-c1ccccc1Cl)C(F)(F)F (mixture of isomers) [Example 95, N-{1-[1-(2-Chlorophenyl)-3-({3-(4-chlorophenyl)-5-oxo-4-[(2S)-3,3,3-trifluoro-2-hydroxypropyl]-4,5-dihydro-1H-1,2,4-triazol-1-yl}methyl)-1H-1,2,4-triazol-5-yl]-2-hydroxyethyl}-2,2,2-trifluoroacetamide]
0.62	9.8	6	O=C1NC(c2nc(Cn3nc(-c4ccc(Cl)cc4)n(C[C@H](O)C(F)(F)F)c3=O)nn2-c2ccccc2Cl)CO1 (mixture of isomers) [Example 98, 5-(4-Chlorophenyl)-2-({1-(2-chlorophenyl)-5-[2-oxo-1,3-oxazolidin-4-yl]-1H-1,2,4-triazol-3-yl}methyl)-4-[(2S)-3,3,3-trifluoro-2-hydroxypropyl]-2,4-dihydro-3H-1,2,4-triazol-3-one]
1.45	18.3	26.5	CN1C(=O)CCC1c1nc(Cn2nc(-c3ccc(Cl)cc3)n(C[C@H](O)C(F)(F)F)c2=O)nn1-c1ncccc1Cl (mixture of isomers) [Example 103, 5-(4-Chlorophenyl)-2-({1-(3-chloropyridin-2-yl)-5-[(2R)-1-methyl-5-oxopyrrolidin-2-yl]-1H-1,2,4-triazol-3-yl}methyl)-4-[(2S)-3,3,3-trifluoro-2-hydroxypropyl]-2,4-dihydro-3H-1,2,4-triazol-3-one]
1.65	11.2	18.5	CC(N)c1nc(Cn2nc(-c3ccc(Cl)cc3)n(C[C@H](O)C(F)(F)F)c2=O)nn1-c1ncccc1Cl (mixture of isomers) [Example 106, 2-({5-[1-Aminoethyl]-1-(3-chloropyridin-2-yl)-1H-1,2,4-triazol-3-yl}methyl)-5-(4-chlorophenyl)-4-[(2S)-3,3,3-trifluoro-2-hydroxypropyl]-2,4-dihydro-3H-1,2,4-triazol-3-one]
13.5	17.8	240	CC(=O)NC(C)c1nc(Cn2nc(-c3ccc(Cl)cc3)n(C[C@H](O)C(F)(F)F)c2=O)nn1-c1ncccc1Cl (mixture of isomers) [Example 107, N-{1-[3-({3-(4-Chlorophenyl)-5-oxo-4-[(2S)-3,3,3-trifluoro-2-hydroxypropyl]-4,5-dihydro-1H-1,2,4-triazol-1-yl}methyl)-1-(3-chloropyridin-2-yl)-1H-1,2,4-triazol-5-yl]ethyl}acetamide]
8.4	25.0	210	O=C1NC(c2nc(Cn3nc(-c4ccc(Cl)cc4)n(C[C@H](O)C(F)(F)F)c3=O)nn2-c2ncccc2Cl)CO1 (mixture of isomers) [Example 112, 5-(4-Chlorophenyl)-2-({1-(3-chloropyridin-2-yl)-5-[2-oxo-1,3-oxazolidin-4-yl]-1H-1,2,4-triazol-3-yl}methyl)-4-[(2S)-3,3,3-trifluoro-2-hydroxypropyl]-2,4-dihydro-3H-1,2,4-triazol-3-one]
21.5	21.9	470	O=C1NC(c2nc(Cn3nc(-c4ccc(Cl)cc4)n(C[C@H](O)C(F)(F)F)c3=O)nn2-c2ncccc2OC(F)(F)F)CO1 (mixture of isomers) [Example 117, 5-(4-Chlorophenyl)-2-({5-[2-oxo-1,3-oxazolidin-4-yl]-1-[3-(trifluoromethoxy)pyridin-2-yl]-1H-1,2,4-triazol-3-yl}methyl)-4-[(2S)-3,3,3-trifluoro-2-hydroxypropyl]-2,4-dihydro-3H-1,2,4-triazol-3-one]
12.5	32.8	410	CC(=O)NC(CO)c1nc(Cn2nc(-c3ccc(Cl)cc3)n(C[C@H](O)C(F)(F)F)c2=O)nn1-c1ncccc1OC(F)(F)F (mixture of isomers) [Example 120, N-[1-{3-({3-(4-Chlorophenyl)-5-oxo-4-[(2S)-3,3,3-trifluoro-2-hydroxypropyl]-4,5-dihydro-1H-1,2,4-triazol-1-yl}methyl)-1-[3-(trifluoromethoxy)pyridin-2-yl]-1H-1,2,4-triazol-5-yl}-2-hydroxyethyl]acetamide]
34	2.2	74.5	CNc1ccncc1-n1nc(Cn2nc(-c3ccc(Cl)cc3)n(C[C@H](O)C(F)(F)F)c2=O)nc1C(C)N (mixture of isomers) [Example 124, 2-({5-[1-Aminoethyl]-1-[4-(methylamino)pyridin-3-yl]-1H-1,2,4-triazol-3-yl}methyl)-5-(4-chlorophenyl)-4-[(2S)-3,3,3-trifluoro-2-hydroxypropyl]-2,4-dihydro-3H-1,2,4-triazol-3-one hydrochloride]
64	9.3	595	CNc1ccncc1-n1nc(Cn2nc(-c3ccc(Cl)cc3)n(C[C@H](O)C(F)(F)F)c2=O)nc1C(C)NC(C)=O (mixture of isomers) [Example 125, N-[1-{3-({3-(4-Chlorophenyl)-5-oxo-4-[(2S)-3,3,3-trifluoro-2-hydroxypropyl]-4,5-dihydro-1H-1,2,4-triazol-1-yl}methyl)-1-[4-(methylamino)pyridin-3-yl]-1H-1,2,4-triazol-5-yl}ethyl]acetamide hydrochloride]
94.5	22.8	2150	CC(N)c1nc(Cn2nc(-c3ccc(Cl)cc3)n(C[C@H](O)C(F)(F)F)c2=O)nn1-c1ncccn1 (mixture of isomers) [Example 128, 2-({5-[1-Aminoethyl]-1-(pyrimidin-2-yl)-1H-1,2,4-triazol-3-yl}methyl)-5-(4-chlorophenyl)-4-[(2S)-3,3,3-trifluoro-2-hydroxypropyl]-2,4-dihydro-3H-1,2,4-triazol-3-one hydrochloride]
190	8.2	1550	CC(=O)NC(C)c1nc(Cn2nc(-c3ccc(Cl)cc3)n(C[C@H](O)C(F)(F)F)c2=O)nn1-c1ncccn1 (mixture of isomers) [Example 129, N-{1-[3-({3-(4-Chlorophenyl)-5-oxo-4-[(2S)-3,3,3-trifluoro-2-hydroxypropyl]-4,5-dihydro-1H-1,2,4-triazol-1-yl}methyl)-1-(pyrimidin-2-yl)-1H-1,2,4-triazol-5-yl]ethyl}acetamide]
21	127.9	2680	CN1C(=O)CCC1c1nc(Cn2nc(-c3ccc(Cl)cc3)n(C[C@H](O)C(F)(F)F)c2=O)nn1CCC(F)(F)F (mixture of isomers) [Example 130, 5-(4-Chlorophenyl)-2-({5-[1-methyl-5-oxopyrrolidin-2-yl]-1-(3,3,3-trifluoropropyl)-1H-1,2,4-triazol-3-yl}methyl)-4-[(2S)-3,3,3-trifluoro-2-hydroxypropyl]-2,4-dihydro-3H-1,2,4-triazol-3-one]
1.1	1.6	1.76	COc1ccccc1-n1nc(Cn2nc(-c3ccc(Cl)cc3)n(C[C@H](O)C(F)(F)F)c2=O)nc1C(C)OC(N)=O (single isomer, unassigned) [Example 39]
5.86	1.1	6.35	COc1ccccc1-n1nc(Cn2nc(-c3ccc(Cl)cc3)n(C[C@H](OC(N)=O)C(F)(F)F)c2=O)nc1C(C)OC(N)=O (single isomer, unassigned) [Example 40]
2.01	4.8	9.69	COc1ccccc1-n1nc(Cn2nc(-c3ccc(Cl)cc3)n(C[C@H](O)C(F)(F)F)c2=O)nc1C(C)OC(N)=O (single isomer, unassigned) [Example 41]
